Test results reported in patent publication US11117900B2 (Vertex Pharmaceuticals Incorporated, priority 2012, dated 2021).

Tested on: HCT116 colorectal cancer cells
Assay: Cisplatin sensitization assay (96 h MTS cell viability);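 also: compound concentration needed to lower the IC50 of Cisplatin alone by a set fold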
Format: cell-based
Conditions: Cisplatin sensitization value
Method in brief: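 The MTS viability read, after 1 h with reagent, followed 96 h of co-treatment at 37° C. in 5% CO2. Both compound and cisplatin were titrated 2-fold from a 10 μM top final concentration in a complete concentration matrix on HCT116 cells. Scores +++/++/+ reflect cisplatin sensitization value ranges.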

SMILES | Cisplatin Sensitization Assay
Nc1nn2cc(F)cnc2c1C(=O)Nc1cncc(F)c1N1CCN(C(=O)C2CN3CCC2CC3)CC1 (centres unmarked) [I-N-130, 2-amino-6-fluoro-N-(5-fluoro-4-(4-(quinuclidine-3-carbonyl)piperazin-1-yl)pyridin-3-yl)pyrazolo[1,5-a]pyrimidine-3-carboxamide] | ++ (Compounds with a Cisplatin sensitization value >0.02 μM but <0.2 μM are marked with “++.”)
Nc1nn2cc(F)cnc2c1C(=O)Nc1cncc(F)c1N1CCN2C(=O)CC[C@@H]2C1 [I-N-182, (R)-2-amino-6-fluoro-N-(5-fluoro-4-(6-oxohexahydropyrrolo[1,2-a]pyrazin-2(1H)-yl)pyridin-3-yl)pyrazolo[1,5-a]pyrimidine-3-carboxamide] | ++ (Compounds with a Cisplatin sensitization value >0.02 μM but <0.2 μM are marked with “++.”)
CN(C)CC(=O)N1CCN(c2c(F)cncc2NC(=O)c2c(N)nn3cc(F)cnc23)CC1 [I-N-153, 2-amino-N-(4-(4-(2-(dimethylamino)acetyl)piperazin-1-yl)-5-fluoropyridin-3-yl)-6-fluoropyrazolo[1,5-a]pyrimidine-3-carboxamide] | ++ (Compounds with a Cisplatin sensitization value >0.02 μM but <0.2 μM are marked with “++.”)
CS(=O)(=O)C1CN(C(=O)C2CCN(c3c(F)cncc3NC(=O)c3c(N)nn4cc(F)cnc34)CC2)C1 [I-G-86, 2-amino-6-fluoro-N-(5-fluoro-4-(4-(3-(methylsulfonyl)azetidine-1-carbonyl)piperidin-1-yl)pyridin-3-yl)pyrazolo[1,5-a]pyrimidine-3-carboxamide] | +++ (Compounds with a Cisplatin sensitization value of <0.02 μM are marked with “+++.”)
Cc1ccnn1-c1ccncc1NC(=O)c1c(N)nn2cc(F)cnc12 [I-N-223, 2-amino-6-fluoro-N-(4-(5-methyl-1H-pyrazol-1-yl)pyridin-3-yl)pyrazolo[1,5-a]pyrimidine-3-carboxamide] | ++ (Compounds with a Cisplatin sensitization value >0.02 μM but <0.2 μM are marked with “++.”)
CN1CCN(c2c(C#N)cncc2NC(=O)c2c(N)nn3cc(F)cnc23)CC1 [I-N-113, 2-amino-N-(5-cyano-4-(4-methylpiperazin-1-yl)pyridin-3-yl)-6-fluoropyrazolo[1,5-a]pyrimidine-3-carboxamide] | + (Compounds with a Cisplatin sensitization value >0.2 μM but <5 μM are marked with “+.”)
Nc1nn2cc(Cl)cnc2c1C(=O)Nc1cnccc1O[C@H]1CCOC1 [I-O-58, (S)-2-amino-6-chloro-N-(4-((tetrahydrofuran-3-yl)oxy)pyridin-3-yl)pyrazolo[1,5-a]pyrimidine-3-carboxamide] | +++ (Compounds with a Cisplatin sensitization value of <0.02 μM are marked with “+++.”)
COCCN1CCN(c2ccncc2NC(=O)c2c(N)nn3cc(Cl)cnc23)CC1 [I-N-60, 2-amino-6-chloro-N-(4-(4-(2-methoxyethyl)piperazin-1-yl)pyridin-3-yl)pyrazolo[1,5-a]pyrimidine-3-carboxamide] | +++ (Compounds with a Cisplatin sensitization value of <0.02 μM are marked with “+++.”)
Nc1nn2cc(F)cnc2c1C(=O)Nc1cncc(F)c1OC1CCN(C2COC2)CC1 [I-O-91, 2-amino-6-fluoro-N-(5-fluoro-4-((1-(oxetan-3-yl)piperidin-4-yl)oxy)pyridin-3-yl)pyrazolo[1,5-a]pyrimidine-3-carboxamide] | ++ (Compounds with a Cisplatin sensitization value >0.02 μM but <0.2 μM are marked with “++.”)
Nc1nn2cc(Cl)cnc2c1C(=O)Nc1cnccc1N1CCC(N2CC(F)(F)C2)CC1 [I-N-108, 2-amino-6-chloro-N-(4-(4-(3,3-difluoroazetidin-1-yl)piperidin-1-yl)pyridin-3-yl)pyrazolo[1,5-a]pyrimidine-3-carboxamide] | +++ (Compounds with a Cisplatin sensitization value of <0.02 μM are marked with “+++.”)
Nc1nn2cc(F)cnc2c1C(=O)Nc1cnccc1N1CCC(C(=O)N2CCCC2)CC1 [I-G-83, 2-amino-6-fluoro-N-(4-(4-(pyrrolidine-1-carbonyl)piperidin-1-yl)pyridin-3-yl)pyrazolo[1,5-a]pyrimidine-3-carboxamide] | +++ (Compounds with a Cisplatin sensitization value of <0.02 μM are marked with “+++.”)
CN1CCN(c2c(F)cncc2NC(=O)c2c(N)nn3cc(F)cnc23)CC1 [I-N-15, 2-amino-6-fluoro-N-(5-fluoro-4-(4-methylpiperazin-1-yl)pyridin-3-yl)pyrazolo[1,5-a]pyrimidine-3-carboxamide] | +++ (Compounds with a Cisplatin sensitization value of <0.02 μM are marked with “+++.”)
Nc1nn2cc(F)cnc2c1C(=O)Nc1cnccc1Oc1cccnc1 [I-O-7, 2-amino-6-fluoro-N-(4-(pyridin-3-yloxy)pyridin-3-yl)pyrazolo[1,5-a]pyrimidine-3-carboxamide] | ++ (Compounds with a Cisplatin sensitization value >0.02 μM but <0.2 μM are marked with “++.”)
CN1CC[C@@H](OC2CCN(c3ccncc3NC(=O)c3c(N)nn4cc(F)cnc34)CC2)C1 [I-N-131] | +++ (Compounds with a Cisplatin sensitization value of <0.02 μM are marked with “+++.”)
N#CCc1cnc2c(C(=O)Nc3cnccc3N3CCCCCC3)c(N)nn2c1 [I-N-79, 2-amino-N-(4-(azepan-1-yl)pyridin-3-yl)-6-(cyanomethyl)pyrazolo[1,5-a]pyrimidine-3-carboxamide] | ++ (Compounds with a Cisplatin sensitization value >0.02 μM but <0.2 μM are marked with “++.”)
Nc1nn2cc(F)cnc2c1C(=O)Nc1cncc(F)c1N1CCC(C(=O)N2CC(N3CCCCC3)C2)CC1 [I-G-57, 2-amino-6-fluoro-N-(5-fluoro-4-(4-(3-(piperidin-1-yl)azetidine-1-carbonyl)piperidin-1-yl)pyridin-3-yl)pyrazolo[1,5-a]pyrimidine-3-carboxamide] | +++ (Compounds with a Cisplatin sensitization value of <0.02 μM are marked with “+++.”)
CC(=O)N1CCN(c2c(F)cncc2NC(=O)c2c(N)nn3cc(F)cnc23)CC1 [I-N-275, N-(4-(4-acetylpiperazin-1-yl)-5-fluoropyridin-3-yl)-2-amino-6-fluoropyrazolo[1,5-a]pyrimidine-3-carboxamide] | +++ (Compounds with a Cisplatin sensitization value of <0.02 μM are marked with “+++.”)
Nc1nn2cc(F)cnc2c1C(=O)Nc1cnccc1-c1cccnc1F [I-C-35, 2-amino-6-fluoro-N-(2-fluoro-[3,4′-bipyridin]-3′-yl)pyrazolo[1,5-a]pyrimidine-3-carboxamide] | +++ (Compounds with a Cisplatin sensitization value of <0.02 μM are marked with “+++.”)
Nc1nn2cc(F)cnc2c1C(=O)Nc1cncc(F)c1N1CCN(C(=O)CN2CCCC2)CC1 [I-N-187, 2-amino-6-fluoro-N-(5-fluoro-4-(4-(2-(pyrrolidin-1-yl)acetyl)piperazin-1-yl)pyridin-3-yl)pyrazolo[1,5-a]pyrimidine-3-carboxamide] | +++ (Compounds with a Cisplatin sensitization value of <0.02 μM are marked with “+++.”)
NCC1CCN(c2ccncc2NC(=O)c2c(N)nn3cc(Cl)cnc23)CC1 [I-N-91, 2-amino-N-(4-(4-(aminomethyl)piperidin-1-yl)pyridin-3-yl)-6-chloropyrazolo[1,5-a]pyrimidine-3-carboxamide] | ++ (Compounds with a Cisplatin sensitization value >0.02 μM but <0.2 μM are marked with “++.”)
Nc1nn2cc(F)cnc2c1C(=O)Nc1cncc(F)c1N1CCN(C(=O)C2CC3CCCCN3C2)CC1 (centres unmarked) [I-N-203, 2-amino-6-fluoro-N-(5-fluoro-4-(4-(octahydroindolizine-2-carbonyl)piperazin-1-yl)pyridin-3-yl)pyrazolo[1,5-a]pyrimidine-3-carboxamide] | +++ (Compounds with a Cisplatin sensitization value of <0.02 μM are marked with “+++.”)
N#CCc1cnc2c(C(=O)Nc3cnccc3OC3CCCC3)c(N)nn2c1 [I-O-43, 2-amino-6-(cyanomethyl)-N-(4-(cyclopentyloxy)pyridin-3-yl)pyrazolo[1,5-a]pyrimidine-3-carboxamide] | +++ (Compounds with a Cisplatin sensitization value of <0.02 μM are marked with “+++.”)
CN(C)CCOc1ccncc1NC(=O)c1c(N)nn2cc(Cl)cnc12 [I-O-48, 2-amino-6-chloro-N-(4-(2-(dimethylamino)ethoxy)pyridin-3-yl)pyrazolo[1,5-a]pyrimidine-3-carboxamide] | ++ (Compounds with a Cisplatin sensitization value >0.02 μM but <0.2 μM are marked with “++.”)
CN1CCN(C(=O)N2CCC(c3ccncc3NC(=O)c3c(N)nn4cc(F)cnc34)CC2)CC1 [I-C-17, 2-amino-6-fluoro-N-(4-(1-(4-methylpiperazine-1-carbonyl)piperidin-4-yl)pyridin-3-yl)pyrazolo[1,5-a]pyrimidine-3-carboxamide] | ++ (Compounds with a Cisplatin sensitization value >0.02 μM but <0.2 μM are marked with “++.”)
Nc1nn2cc(F)cnc2c1C(=O)Nc1cnccc1CN1CCCC1=O [I-C-76, 2-amino-6-fluoro-N-(4-((2-oxopyrrolidin-1-yl)methyl)pyridin-3-yl)pyrazolo[1,5-a]pyrimidine-3-carboxamide] | + (Compounds with a Cisplatin sensitization value >0.2 μM but <5 μM are marked with “+.”)
Nc1nn2cc(Cl)cnc2c1C(=O)Nc1cnccc1O[C@@H]1CCOC1 [I-O-54, (R)-2-amino-6-chloro-N-(4-((tetrahydrofuran-3-yl)oxy)pyridin-3-yl)pyrazolo[1,5-a]pyrimidine-3-carboxamide] | +++ (Compounds with a Cisplatin sensitization value of <0.02 μM are marked with “+++.”)
